Our source for the T/C values is PubChem BioAssay AID330 (DTP/NCI, 2004).

For this experiment, the system named is P388 leukemia ip, CD2F1 mice, survival T/C. Kind of experiment: NCI In Vivo Anticancer Drug Screen. Data for tumor model P388 Leukemia (intraperitoneal) in CD2F1 (CDF1) mice. As to conditions: endpoint: median survival time, higher = longer survival. In short, it runs like this:
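Mice carrying the transplanted tumor received test compound or vehicle. Survival was recorded in each group, and the value is the treated-group measurement divided by that of the vehicle-treated control group.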

The mark [1] stands for this setting: dose: 50.0 mg/kg/injection, schedule: Q01DX005 (ip), vehicle: saline with Tween-80.
Setting [2] is: dose: 100.0 mg/kg/injection, schedule: Q01DX005 (ip), vehicle: saline with Tween-80.
Setting [3] is: dose: 200.0 mg/kg/injection, schedule: Q01DX005 (ip), vehicle: saline with Tween-80.
Setting [4] is: dose: 50.0 mg/kg/injection, schedule: Q01DX009 (ip), vehicle: Klucel (hydroxypropylcellulose) (HPC).
[5] abbreviates: dose: 100.0 mg/kg/injection, schedule: Q01DX009 (ip), vehicle: Klucel (hydroxypropylcellulose) (HPC).
The mark [6] stands for this setting: dose: 200.0 mg/kg/injection, schedule: Q01DX009 (ip), vehicle: Klucel (hydroxypropylcellulose) (HPC).
Where [7] appears, read: dose: 100.0 mg/kg/injection, schedule: Q01DX009 (ip), vehicle: saline.
Setting [8] is: dose: 200.0 mg/kg/injection, schedule: Q01DX009 (ip), vehicle: saline.
The mark [9] stands for this setting: dose: 50.0 mg/kg/injection, schedule: Q01DX009 (ip), vehicle: saline with Tween-80.
Setting [10] is: dose: 100.0 mg/kg/injection, schedule: Q01DX009 (ip), vehicle: saline with Tween-80.
Setting [11] is: dose: 60.0 mg/kg/injection, schedule: Q01DX005 (ip), vehicle: saline with Tween-80.
[12] abbreviates: dose: 240.0 mg/kg/injection, schedule: Q01DX005 (ip), vehicle: saline with Tween-80.

Structures are written as SMILES. Several values for one entry are separate records, joined by “and”; a condition that tells them apart may be missing. Equal entries are not always repeated. Inconclusive results and toxic doses are left out.

With `Cc1cn(CCCCCCOc2c3occc3cc3ccc(=O)oc23)c(=O)[nH]c1=O`, the T/C is, setting by setting: (dose: 50.0 mg/kg/injection, schedule: Q01DX005 (ip), vehicle: Klucel (hydroxypropylcellulose) (HPC)) 92 % of control; (dose: 50.0 mg/kg/injection, schedule: Q04DX002 (ip), vehicle: Klucel (hydroxypropylcellulose) (HPC)) 98 % of control; (dose: 100.0 mg/kg/injection, schedule: Q04DX002 (ip), vehicle: Klucel (hydroxypropylcellulose) (HPC)) 104 % of control; (dose: 200.0 mg/kg/injection, schedule: Q01DX005 (ip), vehicle: Klucel (hydroxypropylcellulose) (HPC)) 88 % of control; (dose: 200.0 mg/kg/injection, schedule: Q04DX002 (ip), vehicle: Klucel (hydroxypropylcellulose) (HPC)) 96 % of control.

Take `O=NNc1ccc(-c2ccc([N+](=O)[O-])cc2)cn1`: the T/C runs as follows: (dose: 3.12 mg/kg/injection, schedule: Q01DX009 (ip), vehicle: saline) 170 % of control; (dose: 6.25 mg/kg/injection, schedule: Q01DX009 (ip), vehicle: saline) 108 % of control.

Take `COc1ncnc2c1ncn2C1CCCCO1` (stereo not given): the T/C by setting is: under setting [1], 97 % of control; under setting [2], 101 % of control; under setting [3], 99 % of control.

In the case of `CCCCCC(=O)C(C)C1(C(=O)OC)NC(=S)NC(=O)C1C#N` (stereo not given), the T/C reads like this: (dose: 60.0 mg/kg/injection, schedule: Q01DX005 (ip), vehicle: Klucel (hydroxypropylcellulose) (HPC)) 105 % of control; (dose: 120.0 mg/kg/injection, schedule: Q01DX005 (ip), vehicle: Klucel (hydroxypropylcellulose) (HPC)) 98 % of control; (dose: 240.0 mg/kg/injection, schedule: Q01DX005 (ip), vehicle: Klucel (hydroxypropylcellulose) (HPC)) 97 % of control.

Take `CNC(=O)Nc1ccccc1C(=O)NN`: the T/C is 100 % of control (dose: 25.0 mg/kg/injection, schedule: Q01DX009 (ip), vehicle: Klucel (hydroxypropylcellulose) (HPC)); 109 % of control under setting [4]; 105 % of control under setting [5]; 96 % of control under setting [6].

With `CCCOCC(=O)OC`, the T/C by setting is: (dose: 50.0 mg/kg/injection, schedule: Q01DX009 (ip), vehicle: saline) 98 % of control; under setting [7], 99 % of control; under setting [8], 100 % of control.

Turning to `Cc1cccc(N=Cc2ccc(C=Nc3cccc(C)c3C)cc2)c1C`, the T/C was 92 % of control under setting [4], 91 % of control under setting [5] and 86 % of control under setting [6].

As to `Cc1ccc(N2C(=O)CC3(CCCCC3)C2=O)cc1[N+](=O)[O-]`, the T/C by setting is: (dose: 100.0 mg/kg/injection, schedule: Q04DX003 (ip), vehicle: Klucel (hydroxypropylcellulose) (HPC)) 93 % of control; (dose: 200.0 mg/kg/injection, schedule: Q04DX003 (ip), vehicle: Klucel (hydroxypropylcellulose) (HPC)) 97 % of control; (dose: 400.0 mg/kg/injection, schedule: Q04DX003 (ip), vehicle: Klucel (hydroxypropylcellulose) (HPC)) 99 % of control.

`CCN(CC)c1ccc(N=Nc2ccc(C)cc2)cc1`: the T/C reads like this: under setting [7], 89 % of control; under setting [8], 103 % of control; (dose: 400.0 mg/kg/injection, schedule: Q01DX009 (ip), vehicle: saline) 90 % of control.

Turning to `Nc1nc[nH]c(=O)c1NC(=O)c1cccc([N+](=O)[O-])c1`, the T/C reads like this: (dose: 12.5 mg/kg/injection, schedule: Q01DX009 (ip), vehicle: saline with Tween-80) 101 % of control; (dose: 25.0 mg/kg/injection, schedule: Q01DX009 (ip), vehicle: saline with Tween-80) 100 % of control; under setting [9], 96 % of control; under setting [10], 99 % of control.

Turning to `CCCCCCCCCCN(CCCCCCCCCC)C1CC(OC2CC(O)(C(C)=O)Cc3c(O)c4c(c(O)c32)C(=O)c2c(OC)cccc2C4=O)OC(C)C1O` (stereo not given), the T/C reads like this: (dose: 3.13 mg/kg/injection, schedule: Q01DX009 (ip), vehicle: distilled water + Tween-80) 113 % of control; (dose: 4.7 mg/kg/injection, schedule: Q04DX003 (ip), vehicle: other) 104 % of control; (dose: 6.25 mg/kg/injection, schedule: Q01DX009 (ip), vehicle: distilled water + Tween-80) 96 % of control; (dose: 9.4 mg/kg/injection, schedule: Q04DX003 (ip), vehicle: other) 104 % of control; (dose: 12.5 mg/kg/injection, schedule: Q01DX009 (ip), vehicle: distilled water + Tween-80) 102 % of control; (dose: 18.8 mg/kg/injection, schedule: Q04DX003 (ip), vehicle: other) 112 % of control. Moreover, the T/C (dose: 37.5 mg/kg/injection, schedule: Q04DX003 (ip), vehicle: other) was 105 % of control and the T/C (dose: 75.0 mg/kg/injection, schedule: Q04DX003 (ip), vehicle: other) was 103 % of control.

As for `COc1cc2c(c(OC)c1OC)-c1ccc(OC)c(=O)cc1C(NC(=O)COc1ccccc1)CC2` (stereo not given), the T/C by setting is: (dose: 0.16 mg/kg/injection, schedule: Q01DX009 (ip), vehicle: Klucel (hydroxypropylcellulose) (HPC)) 120 % of control; (dose: 1.25 mg/kg/injection, schedule: Q01DX009 (ip), vehicle: Klucel (hydroxypropylcellulose) (HPC)) 164 % of control and 171 % of control; (dose: 2.5 mg/kg/injection, schedule: Q01DX009 (ip), vehicle: Klucel (hydroxypropylcellulose) (HPC)) 104 % of control and 207 % of control.

`Cc1cc[c]([Sn]([Cl])([O][Sn]([Cl])([c]2ccc(C)cc2)[c]2ccc(C)cc2)[c]2ccc(C)cc2)cc1`: the T/C by setting is: (dose: 1.56 mg/kg/injection, schedule: Q01DX005 (ip), vehicle: Klucel (hydroxypropylcellulose) (HPC)) 105 % of control; (dose: 3.12 mg/kg/injection, schedule: Q01DX005 (ip), vehicle: Klucel (hydroxypropylcellulose) (HPC)) 96 % of control; (dose: 3.12 mg/kg/injection, schedule: Q01DX005 (ip), vehicle: saline) 115 % of control; (dose: 6.25 mg/kg/injection, schedule: Q01DX005 (ip), vehicle: Klucel (hydroxypropylcellulose) (HPC)) 94 % of control; (dose: 6.25 mg/kg/injection, schedule: Q01DX005 (ip), vehicle: saline) 118 % of control; (dose: 12.5 mg/kg/injection, schedule: Q01DX005 (ip), vehicle: Klucel (hydroxypropylcellulose) (HPC)) 99 % of control.

For the molecule `C1=CCC(C(Nc2nncs2)Nc2nncs2)CC1` (stereo not given), the T/C runs as follows: under setting [11], 107 % of control; under setting [12], 108 % of control.

As for `NNC(=O)c1ccccc1CO`, the T/C under setting [11] is 96 % of control; the T/C (dose: 120.0 mg/kg/injection, schedule: Q01DX005 (ip), vehicle: saline with Tween-80) is 102 % of control; the T/C under setting [12] is 113 % of control.

Turning to `Cc1ccc(SSCCN)cc1`, the T/C runs as follows: (dose: 12.5 mg/kg/injection, schedule: Q01DX005 (ip), vehicle: saline) 104 % of control; (dose: 25.0 mg/kg/injection, schedule: Q01DX005 (ip), vehicle: saline) 104 % of control; (dose: 50.0 mg/kg/injection, schedule: Q01DX005 (ip), vehicle: saline) 108 % of control and 110 % of control.

As for `Cc1ccc(S(=O)CC(O)c2ccccc2)cc1` (stereo not given), the T/C was 110 % of control under setting [9]; 101 % of control under setting [10]; 100 % of control (dose: 200.0 mg/kg/injection, schedule: Q01DX009 (ip), vehicle: saline with Tween-80).

`CCC/C=C/C=C\C(=O)O[C@@H]1[C@@H](C)[C@]2(O)[C@@H]3C=C(C)C(=O)[C@H]3CC(COC(C)=O)=C[C@H]2[C@@H]2C(C)(C)[C@]12OC(C)=O`: the T/C by setting is: (dose: 0.38 mg/kg/injection, schedule: Q01DX005 (ip), vehicle: saline + alcohol) 123 % of control and 92 % of control; (dose: 0.38 mg/kg/injection, schedule: Q01DX005 (ip), vehicle: saline with Tween-80) 100 % of control; (dose: 0.75 mg/kg/injection, schedule: Q01DX005 (ip), vehicle: saline with Tween-80) 105 % of control; (dose: 1.5 mg/kg/injection, schedule: Q01DX005 (ip), vehicle: saline with Tween-80) 103 % of control; (dose: 3.0 mg/kg/injection, schedule: Q01DX005 (ip), vehicle: saline with Tween-80) 117 % of control.

For the molecule `O=[N+]([O-])c1ccc(Sc2c3ccccc3nc3ccccc23)nc1`, the T/C (dose: 25.0 mg/kg/injection, schedule: Q01DX005 (ip), vehicle: saline with Tween-80) was 108 % of control; the T/C under setting [1] was 100 % of control; the T/C under setting [2] was 106 % of control; the T/C under setting [3] was 100 % of control.
